{"source": "patent US11786555B2", "about": "“RAR selective agonists in combination with immune modulators for cancer immunotherapy” (IO THERAPEUTICS, INC., priority 2017, dated 2023)", "key": {"BM stromal cells": {"tested_on": "BM stromal cells", "assay": "CYP26A1 expression in BM stromal cells exposed to soluble factors", "type": "cell-based", "details": "soluble factors tested", "protocol": "(§1) qRT-PCR. Total RNA was extracted using the RNeasy Mini Kit (QIAGEN) according to the manufacturer's instructions. cDNA was synthesized by reverse transcription using the iScript cDNA Synthesis Kit (Bio-Rad). qRT-PCR was performed with iTaq SYBR Green Supermix (Bio-Rad) using sequence specific primers. Gene expression was normalized to GAPDH, and relative quantification was calculated using ΔΔCt. All experiments were performed in duplicate and run on the Bio-Rad CFX96 machine."}, "[1]": {"tested_on": "H929 cells and CD138+ primary MM cells", "assay": "qRT-PCR of B cell and PC markers in MM cells, liquid or BM stroma co-culture", "type": "cell-based, human", "protocol": "FIG. 3A-H depicts the relative concentration of plasma markers BCL6 (FIG. 3A and E), BLIMP-1 (FIG. 3B and F), XBPS-1 (FIG. 3C and G), and CHOP (FIG. 3D and H) in multiple myeloma (MM) cell lines H929 (FIG. 3A-D) or CD138+ MM cells from three different patient samples (FIG. 3E-H) incubated for 5 days either in the absence of stroma (Liquid), with or without AGN (RA receptor antagonist AGN194310, 1 μM), or co-cultured with BM mesenchymal cells (Stroma), with or without R115 (CYP26 inhibitor R115866, 1 μM) or IRX (CYP26-resistant retinoid IRX5183, 1 μM). Expression in untreated liquid conditions was set at 1. Data are representative of 3 independent experiments with similar results and represent the mean ±SEM. *P≤0.05 and **P≤0.01, by repeated-measures 1-way ANOVA for determination of statistical significance between groups; P values were corrected for multiple comparisons using Dunnett's test. Ctrl, control; max, maximum.\n(§2) Coculture experiments. 24-well plates were coated with 0.1% gelatin in PBS for 30 min at 37° C. The gelatin solution was removed, and the stromal cells were cultured overnight at a density of 5×10^4 cells/well to obtain a confluent monolayer. At that time, MM cell lines or primary MM cells (1×10^5 in 2 ml) were added to the stroma cultures. The stroma cocultures were incubated at 37° C. in RPMI containing 10% FCS, L-glutamine, and P/S, with or without AGN194310 (1 μM for 5 days), R115866 (1 μM for 5 days), IRX5183 (1 μM for 5 days), or BTZ (2.5 nM for 48 hr).\nas §1\nThe BM microenvironment (also called “niche”) limits PC differentiation by modulating retinoid signaling. A population of MM progenitors, phenotypically similar to B cells, is intrinsically resistant to BTZ and contributes to MRD and relapse. To investigate whether the BM niche plays a role in determining the phenotype of MM cells, the mRNA expression of B cell and PC markers in MM H929 cell lines (FIG. 3A-D) and MM CD138+ primary cells (FIG. 3E-H) was analyzed following co-culture with mouse BM stroma using human-specific primers. […] In contrast, co-culture of MM cells with BM stroma decreased the mRNA expression of B lymphocyte-induced maturation protein 1 (BLIMP1) and spliced X box-binding protein 1 (XBP1s) (FIG. 3B, C, F, G), which are critical mediators of PC differentiation.\nThe BM niche regulates hematopoietic stem cell (HSC) differentiation by expressing the retinoid-inactivating enzyme CYP26. CYP26 enzymes were highly expressed in BM mesenchymal cells, while their expression was barely detectable in MM cells. Since retinoid signaling promotes PC differentiation and potentiates Ig secretion, it was determined whether stromal CYP26 is responsible for inducing a B cell phenotype in MM cells. To this end, co-culture conditions were treated with the CYP26 inhibitor R115866 (R115) or the CYP26-resistant RA receptor α-selective (RARα-selective) retinoid IRX5183 (IRX)."}, "[2]": {"tested_on": "H929 cells and primary CD138+ MM cells", "assay": "clonogenic or cellular recovery of MM cells after BTZ treatment", "type": "cell-based, human", "details": "for sensitivity of MM cells to BTZ: BTZ 2.5 nM for 48 hours", "protocol": "FIG. 4A-B depicts the clonogenic recovery (CFU) of H929 cells (FIG. 4A) or cellular recovery of primary CD138+ MM cells from 3 different patient samples (FIG. 4B). MM cells were treated with bortezomib (BTZ; 2.5 nM) for 48 hours after being incubated for 5 days either in the absence of stroma (Liquid), with or without the pan-RAR inhibitor AGN (1 μM), or in the presence of BM mesenchymal cells (Stroma), with or without the CYP26 inhibitor R115 (1 μM) or the CYP26-resistant retinoid IRX (1 μM). Clonogenic or cellular recovery was normalized to each condition in the absence of BTZ.\nas §2\nClonogenic assays. After treatment, MM cells were collected, washed with PBS, and plated at a density of 5,000 cells/ml in 1 ml of 1.32% methylcellulose supplemented with 30% FBS, 10% BSA, L-glutamine, P/S, and 0.1 mM β-ME. Cells were plated in triplicate in 35-mm culture dishes, incubated at 37° C., and scored for the presence of colonies 14 days later.\nA RA-low microenvironment induces BTZ resistance. To determine whether decreased retinoid signaling contributes to BTZ resistance within the BM niche, MM cell lines and MM CD138+ primary cells were incubated with BM stroma for 5 days, followed by BTZ treatment."}, "H929 cells": {"tested_on": "H929 cells", "assay": "mobilization experiment, BTZ after separation from BM stroma", "type": "cell-based, human", "protocol": "FIG. 5 depicts clonogenic recovery of H929 cells treated with BTZ (2.5 nM). MM cells were incubated for 5 days in the absence (Liquid) or presence of BM mesenchymal cells (Stroma), with or without R115 (1 μM). Following this preincubation, H929 cells were separated from BM stroma, cultured in fresh media for 0 to 48 hours, and then treated with BTZ (2.5 nM) for 48 hours. Clonogenic recovery was normalized to each condition in the absence of BTZ.\nMobilization experiments. MM cells were separated from BM stromal cells by gently pipetting several times around the well. Detached cells were centrifuged, resuspended in fresh media, and incubated in a 24-well plate for 1 hr at 37° C. During this short incubation period, contaminating stromal cells attached to the well, while MM cells remained in suspension. MM cells were then recovered by gently pipetting. This protocol was used for qRT-PCR and CFU coculture experiments. […]\nClonogenic assays. […] Cells were plated in triplicate in 35-mm culture dishes, incubated at 37° C., and scored for the presence of colonies 14 days later.\nStrategies to overcome microenvironment-dependent chemoprotection have focused on mobilization of cancer cells from the BM niche into the peripheral circulation. It was analyzed whether the change in phenotype and subsequent BTZ resistance of MM cells were lost upon separation from the BM stroma, a process that mimics mobilization. […]"}, "H929 Luc+ cells": {"tested_on": "H929 Luc+ cells", "assay": "systemic MM xenograft, bioluminescence", "type": "in vivo, mouse", "details": "monotherapy, 4 weeks; BTZ 0.5 mg/kg i.p. twice weekly, IRX 10 mg/kg once daily", "protocol": "FIG. 6 depicts bioluminescent images of systemic MM xenografts. Following engraftment of H929 Luc+ cells, mice were treated with IRX (n=4), BTZ (n=5), or a combination of both (n=5) for 4 weeks. Data represent the mean±SEM of the fold change in bioluminescence (photons/second) from day 0.\nFor the systemic MM model, 2×10^6 Luc+/GFP+ H929 cells were injected via the tail vein into 16-week-old male NSG mice. After engraftment, as determined by an exponential increase in bioluminescence, mice were treated with BTZ (0.5 mg/kg i.p.) twice weekly and with IRX (10 mg/kg) once daily. Tumor burden was assessed by bioluminescence, as above.\nTo test whether retinoids can enhance BTZ activity in MM, a systemic MM xenograft was developed by injecting 2×10^6 H929 luciferase+ (Luc+) cells via the tail vein of non-obese, diabetic, severe combined immunodeficiency IL-2 receptor y-KO (NSG) mice. The animals were randomized to receive IRX, BTZ, or a combination of both, and disease burden was followed weekly by bioluminescence imaging (FIG. 6)."}, "[3]": {"tested_on": "H929 Luc+ cells with WT or Smo-KO stroma", "assay": "subcutaneous xenograft model of MM-niche interactions, bioluminescence", "type": "in vivo, mouse", "details": "BTZ 0.5 mg/kg i.p. twice weekly", "protocol": "FIG. 9 depicts bioluminescent images of mice showing tumor burden during 4 weeks of treatment with IRX (10 mg/kg), BTZ (0.5 mg/kg), or the combination. Anterior tumors consisted of a combination of MM.1S luciferase^+ cells and Smo^FI/FI BM stroma cells transduced with a control vector (WT BM stroma). Posterior tumors consisted of a combination of MM.1S luciferase^+ cells and Smo^FI/FI BM stroma cells transduced with Cre-recombinase (Smo KO BM stroma).\nFIG. 10 depicts the fold change in bioluminescence (photons/second) of tumors during 4 weeks of treatment. The change in bioluminescence for each tumor […].\nMouse xenografts. 1×10^6 H929 Luc+ cells and 1×10^6 mouse BM stromal cells were resuspended in 100 μl […]®, diluted with RPMI (1:1), and injected subcutaneously into 16-week-old male NSG mice. After 4 days, treatment with BTZ (0.5 mg/kg i.p. twice weekly) and IRX (10 mg/kg i.p. daily) was initiated. Tumor burden was assessed by bioluminescence using the In Vivo Imaging System (PerkinElmer). For imaging, mice were exposed to 120 mg/kg D-luciferin via intraperitoneal injection […] before imaging and were anesthetized using isoflurane. Images were analyzed with Living Image Software, version 2.5 (PerkinElmer), and data were quantified as photons/second.\nTo study to what extent an RA-low environment created by the BM stroma and enhanced by MM cells via paracrine Hedgehog signaling contributes to BTZ resistance, a xenograft model of MM-niche interactions was developed. Each mouse carried 2 subcutaneous tumors consisting of H929 Luc+ cells and either WT (anterior tumors) or Smo-KO stroma (posterior tumors). Mice were treated with IRX (10 mg/kg i.p. daily), BTZ (0.5 mg/kg i.p. twice weekly), or a combination of both. The growth of tumors bearing WT or Smo-KO stroma was not different in untreated or IRX-treated groups (FIGS. 9 and 10). […] While some tumors in the treatment group receiving combined IRX and BTZ appeared to have regressed completely, even after anatomical study, this was not the case for all the mice in this group."}, "[4]": {"tested_on": "naive CD4+ CD25− FoxP3− cells", "assay": "in vitro Treg cell differentiation (FoxP3-GFP, flow cytometry)", "type": "cell-based, mouse", "details": "data not shown", "protocol": "(§3) To determine whether a RARα agonist could affect T cell differentiation, T cells were incubated with a RARα agonist to determine its effect on Foxp3 expression. Naive CD4^+ CD25^− FoxP3^− cells were purified from a Foxp3-GFP mouse using flow cytometry by sorting and isolating based upon a GFP^− phenotype. These cells were activated polyclonally with αCD3 in vitro in the presence of IL-2 and TGF-β. These cells were then cultured in media with various concentrations of compound IRX5183 (a RARα agonist) and the expression of FoxP3-GFP was analyzed by flow cytometry. The RARα agonist compound IRX5183 enhanced differentiation of immunosuppressive Treg cells and inhibited differentiation of inflammatory TH17 cells from naïve T cells in vitro (Table 2)."}, "[5]": {"tested_on": "naive CD4+ CD25− FoxP3− cells", "assay": "in vitro Th17 cell differentiation", "type": "cell-based, mouse", "details": "in vitro, data not shown", "protocol": "as §3"}, "CD4+ T cells": {"tested_on": "CD4+ T cells", "assay": "in vivo T cell differentiation in mice (blood and spleen)", "set-up": "species or system mouse", "details": "in vivo, data not shown", "protocol": "To expand on the finding above, the in vivo effects of a RARα agonist on T cell differentiation was evaluated in a mouse model. Mice were treated with 100 μg of compound IRX5183 or an equivalent volume of DMSO (vehicle control) every other day for 10 days. Lymphocytes from the blood and spleen were then isolated and FoxP3 expression in CD4^+ T cells was assessed."}}}
{"compound": "IL-6: cytokine, soluble factor produced by MM cells", "values": [{"measurement": "expression of CYP26A1 on BM stromal cells", "setting": "BM stromal cells", "value": "no significant effects"}]}
{"compound": "TNF-α", "values": [{"measurement": "expression of CYP26A1 on BM stromal cells", "setting": "BM stromal cells", "value": "no significant effects"}]}
{"compound": "CCC(CC)C(c1ccc(Nc2nc3ccccc3s2)cc1)n1cncn1", "note": "(stereo not shown) [Compound R115866]", "values": [{"measurement": "expression of differentiation markers by qRT-PCR or flow cytometry", "setting": "[1]; liquid conditions compared with BM stroma", "value": "did not significantly affect the expression of differentiation markers"}, {"measurement": "mRNA expression of B cell and PC markers (BCL6, BLIMP1, XBP1s, CHOP)", "setting": "[1]; stroma co-cultures, 1 μM for 5 days", "value": "restored all markers to levels comparable to those of liquid control conditions"}, {"measurement": "effect on stroma-induced BTZ resistance", "setting": "[2]; stroma co-culture, 1 μM for 5 days, then BTZ 2.5 nM", "value": "overcome"}, {"measurement": "development of BTZ-resistant phenotype", "setting": "H929 cells; co-culture treated with 1 μM, then separation and BTZ", "value": "prevented the development of a BTZ-resistant phenotype"}]}
{"compound": "CC(C)C[C@H](NC(=O)[C@H](Cc1ccccc1)NC(=O)c1cnccn1)B(O)O", "note": "[BTZ, bortezomib]", "values": [{"measurement": "sensitivity of MM cells to BTZ", "setting": "[2]; absence of BM stroma (liquid)", "value": "highly sensitive to BTZ"}, {"measurement": "sensitivity of MM cells to BTZ", "setting": "[2]; after 5 days incubation with BM stroma", "value": "induced BTZ resistance"}, {"measurement": "BTZ resistance after separation from BM stroma", "setting": "H929 cells; 5-day stroma co-culture, fresh media 0 to 48 hr, then BTZ 2.5 nM", "value": "remained partially resistant to BTZ for up to 48 hr following detachment from stroma"}, {"measurement": "tumor burden (bioluminescence)", "setting": "H929 Luc+ cells", "value": "decreased tumor growth compared with untreated controls"}, {"measurement": "tumor response (bioluminescence)", "setting": "[3]; tumors carrying Smo-KO stroma", "value": "significant response"}, {"measurement": "tumor response (bioluminescence)", "setting": "[3]; tumors with WT stroma", "value": "refractory to BTZ treatment"}]}
{"compound": "CCOc1c(Br)cc(C(=O)Nc2ccc(C(=O)O)cc2)cc1C(=O)c1ccc(C)cc1", "note": "[AGN196996]", "values": [{"measurement": "Treg cell numbers", "setting": "[4]", "value": "decreases Treg cell numbers"}, {"measurement": "Th17 cell numbers", "setting": "[5]", "value": "increases Th17 cell numbers"}, {"measurement": "Th17 cell numbers", "setting": "CD4+ T cells", "value": "increases Th17 cell numbers"}, {"measurement": "Treg cell numbers", "setting": "CD4+ T cells", "value": "decreases Treg cell numbers"}]}
